# Reference: PMC2763043 (ACS chemical biology, 2009)
# What was measured:
# FKBP51 = experiment: Real time rt-PCR of FKBP51, 18S and GAPDH in MDA-kb2; format: cell-based; details: 0.2 nM DHT, MDA-kb2, control experiments
# Androgen Receptor (AR) = Androgen Receptor (AR) (Homo sapiens, UniProt P10275); experiment: AR transcription reporter assay; format: cell-based; details: 0.2 nM DHT
# AR-LBD = biological target: T1, AR-LBD (Homo sapiens, UniProt P10275); experiment: Scintillation Proximity Assay, [3H]-DHT displacement from AR-LBD; format: binding; details: SPA
# T1 sequence (P10275 663-919): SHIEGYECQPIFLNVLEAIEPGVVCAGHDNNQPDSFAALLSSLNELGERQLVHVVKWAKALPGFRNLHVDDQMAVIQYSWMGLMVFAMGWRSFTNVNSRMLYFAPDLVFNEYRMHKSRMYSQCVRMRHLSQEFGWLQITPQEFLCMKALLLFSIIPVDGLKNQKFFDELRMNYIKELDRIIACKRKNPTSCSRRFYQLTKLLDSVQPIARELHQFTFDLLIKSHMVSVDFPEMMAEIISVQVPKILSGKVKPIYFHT
# MDA-kb2 cells = experiment: Cytotoxicity in MDA-kb2; format: cell-based; details: Cell-Titer Glo, 20 hours
# [1] = PAMPA permeability and membrane retention; details: 0.5% DMSO, pH 7.4
# in vitro = details: PAMPA, pH 7.4
# AR = details: cited from earlier work
# Androgen Receptor (AR), sequence (P10275 whole entry, the tested form may be a part): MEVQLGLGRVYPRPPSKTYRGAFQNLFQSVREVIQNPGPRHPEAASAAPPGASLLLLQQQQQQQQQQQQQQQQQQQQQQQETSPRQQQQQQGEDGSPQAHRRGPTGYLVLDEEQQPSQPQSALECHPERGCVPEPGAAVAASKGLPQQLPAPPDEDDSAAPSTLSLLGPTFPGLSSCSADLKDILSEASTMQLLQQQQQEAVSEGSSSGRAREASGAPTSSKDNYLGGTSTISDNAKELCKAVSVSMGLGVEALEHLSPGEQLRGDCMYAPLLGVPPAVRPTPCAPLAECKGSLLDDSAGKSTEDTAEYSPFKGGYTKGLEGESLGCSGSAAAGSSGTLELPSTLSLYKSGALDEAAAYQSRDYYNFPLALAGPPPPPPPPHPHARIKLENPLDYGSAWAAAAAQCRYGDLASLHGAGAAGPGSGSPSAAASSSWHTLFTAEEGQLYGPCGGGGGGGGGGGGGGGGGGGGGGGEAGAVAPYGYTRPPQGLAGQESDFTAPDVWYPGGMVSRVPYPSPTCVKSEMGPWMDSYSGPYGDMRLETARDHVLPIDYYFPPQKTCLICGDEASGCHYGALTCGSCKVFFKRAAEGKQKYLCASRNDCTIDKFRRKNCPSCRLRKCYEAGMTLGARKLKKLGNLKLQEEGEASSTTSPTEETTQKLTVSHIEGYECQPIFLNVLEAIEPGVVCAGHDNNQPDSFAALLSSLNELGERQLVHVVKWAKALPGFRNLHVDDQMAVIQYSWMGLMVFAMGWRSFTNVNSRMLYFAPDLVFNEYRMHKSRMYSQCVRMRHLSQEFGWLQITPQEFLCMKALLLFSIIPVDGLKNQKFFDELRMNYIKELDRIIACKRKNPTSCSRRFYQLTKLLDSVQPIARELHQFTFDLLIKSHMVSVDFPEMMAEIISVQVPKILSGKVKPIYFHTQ
structure (smiles),measurement,setting,value
"C[C@]12CCC(=O)C[C@@H]1CC[C@@H]1[C@@H]2CC[C@]2(C)[C@@H](O)CC[C@@H]12 [DHT, dihydrotestosterone]",FKBP51 induction,FKBP51,4–5 fold
O=C(O)c1ccccc1Nc1ccc(Cc2ccccc2)cc1 [Compound 20],"% inhibition (in brackets), transcriptional inhibition in MDA-kb2",Androgen Receptor (AR),75%
same,"Binding to the DHT (hormone) binding site of AR-LBD, in words",AR-LBD,low micromolar range
same,Cytotoxicity (IC50) in MDA-kb2,MDA-kb2 cells,Non toxic
same,Permeability,[1],98 ± 31 10^‒6 cm s^‒1
same,Retention in membrane,[1],89%
CC(O)(CS(=O)(=O)c1ccc(F)cc1)C(=O)Nc1ccc(C#N)c(C(F)(F)F)c1 (centres unmarked) [Bicalutamide],Cytotoxicity (IC50) in MDA-kb2,MDA-kb2 cells,Non toxic
CC(C)(O)C(=O)Nc1ccc([N+](=O)[O-])c(C(F)(F)F)c1 [Hydroxyflutamide],Papp,in vitro,183 ± 29 ×10⁻⁶ cm/s
same,Cytotoxicity (IC50) in MDA-kb2,MDA-kb2 cells,Non toxic
same,Retention in membrane,[1],75%
"O=C(O)c1ccccc1Nc1cccc(C(F)(F)F)c1 [Compound 1, flufenamic acid]",Block of AR transcription activity,AR,able to block AR transcription activity
